Assay results as given in patent US7988957B2, “Gene introduction efficiency enhancer” (Genesis Healthcare Corp., priority 2003, dated 2011).

Assays:
[1] = system: U251MG; assay: Percent occurrence of EGFP-positive cells by FACS analysis; assay type: cell-based, human; settings: FK228 1 ng/mL, type-2 AAV vector, 24 hours, FIG. 1B
Experimental: (§1) Type-2 AAV vector (1×10^4 genome copies/cell) and FK228 (0, 0.01, 0.1, or 1 ng/mL) were added to a culture supernatant of U251MG, and 24 hours later, the percent occurrence of cells positive for CD51 (integrin) or EGFP was calculated through FACS analysis. The FACS analysis was performed through a customary method by use of FACSCan (Becton Dickinson, San Jose, Calif.) and CellQuest software (Becton Dickinson, San Jose, Calif.).
(§2) PE-labeled anti-CD51 monoclonal antibody: 13C2 was obtained from Cymbus Biotechnology Ltd., Chandlers Ford, UK. Dead cells were detected by means of 7-amino-actinomycin D (Via-Probe; Pharmingen, San Diego, Calif.).
(§3) Cells were washed with a FACS buffer (PBS containing 5% FBS and 0.05% sodium azide), and then incubated with the antibody on ice for 30 minutes. Fluorescences attributed to EGFP, PE, and Via-Probe were detected by FL1, FL2, and FL3, respectively. Cells negative for Via-Probe; i.e., viable cells, were employed for measuring expression of EGFP and/or CD51.

[2] = system: human glioma cell line U251MG; assay: AAV-vector-mediated EGFP transgene expression, fluorescence microscope; assay type: cell-based; settings: 24 hours
Experimental: (§4) FK228 which had been isolated and purified through the method described in Japanese Patent Publication (kokoku) No. 7-64872 was employed as a histone deacetylase inhibitor. The FK228 was dissolved in ethanol for storage. When in use, the FK228 was diluted with a medium, to thereby regulate the FK228 concentration to fall within a range of 0 to 100 ng/mL.
An AAV vector genome plasmid and a helper plasmid were introduced into 293 cells through the calcium phosphate method, and AAV vectors (types 1 to 5) which express EGFP (enhanced green fluorescent protein) under the control of a cytomegalovirus (CMV) promoter were prepared. Specifically, the AAV vector preparation was performed through the method described in the following references. • Reference 1: Methods 2002; 8: 237-247 (described above) • Reference 2: Methods Enzymol 2002; 346: 378-393 (described above) • 3. Cells and Cell Culture (1) Human Glioma Cell Line; U251MG, U87MG
U251MG was obtained from JCRB Cell Bank, National Institute of Health Sciences. […]
(§5) The effect of FK228 on enhancing expression of a transgene was evaluated with glioma cells. Type-2 AAV vector (1×10^4 genome copies/cell) and FK228 (0, 0.01, 0.1, 1, 10, or 100 ng/mL) were added to a culture supernatant of the human glioma cell line U251MG, and 24 hours later, expression of EGFP was observed under a fluorescence microscope.

[3] = system: U251MG; assay: Number of viral genome copies taken into cells, real-time PCR; assay type: cell-based, human; settings: FK228 1 ng/mL
Experimental: Type-2 AAV vector (1×10^4 genome copies/cell) and FK228 (1 ng/mL) were added to a culture supernatant of U251MG, and the number of viral genome copies taken into cells was semi-quantified by means of real-time PCR (ABI, Prism 7700; QIAGEN, SYBR Green PCR kit QuantiTect) (performed through the method according to Mol. Ther. Aug. 6, 2002 (2): 272-278). After U251MG cells were infected with the type-2 AAV vector, the number of intracellular genome copies was measured in a time-course manner (0, 2, 4, 12, and 24 hours).

[4] = system: subcultured human glioma cells (prepared from an operative specimen); assay: AAV-vector-mediated EGFP transgene expression; assay type: cell-based; settings: FK228 1 ng/mL
Experimental: as §4
(§6) An AAV vector genome plasmid and a helper plasmid were introduced into 293 cells through the calcium phosphate method, and AAV vectors (types 1 to 5) which express EGFP (enhanced green fluorescent protein) under the control of a cytomegalovirus (CMV) promoter were prepared. […]
as §5
(§7) Similar to the case of U251MG, in the cases of the head and neck cancer cell line HEp-2 and the subcultured human glioma cells (prepared from an operative specimen), the effect of FK228 in enhancing AAV-vector-mediated gene transfer was evaluated.

[5] = system: CD51 (integrin); assay: Percent occurrence of CD51 (integrin)-positive cells by FACS analysis; assay type: cell-based, human; settings: FK228 0, 0.01, 0.1 or 1 ng/mL; 24 hours; U251MG; FIG. 1A
Experimental: as §1, §2, §3

[6] = system: head and neck cancer cell line HEp-2; assay: AAV-vector-mediated EGFP transgene expression; assay type: cell-based, human; settings: FK228 1 ng/mL
Experimental: as §4, §6, §5, §7

With `C/C=C1\NC(=O)[C@H]2CSSCC/C=C/[C@H](CC(=O)N[C@H](C(C)C)C(=O)N2)OC(=O)[C@H](C(C)C)NC1=O` [FK228] the “percent occurrence of EGFP-positive cells” value [1] was “sharply increased”, the “EGFP expression enhancing effect” value ([2]; FK228 at 1 ng/mL or more, type-2 AAV vector) was “remarkable EGFP expression enhancing effect” and the “expression of EGFP” value ([2]; Type-2 AAV vector 1×10^4 genome copies/cell, FK228 0, 0.01, 0.1, 1, 10 or 100 ng/mL) was “enhanced in an FK228-dose-dependent manner”. The “genome copy number in the FK228-treated group” value ([3]; 24 hours after the infection) was “slight increase”, the “genome copy number, FK228-treated group versus control group (only a solvent)” value ([3]; type-2 AAV vector, 0, 2, 4, 12 and 24 hours, FIG. 2) was “No significant difference” and the EGFP expression [4] was “enhanced”. For the same molecule, the “percent occurrence of integrin-positive cells” value [5] was “gradual increase” and the EGFP expression [6] was “enhanced”.
